Data as given in patent US20240309005A1 (priority 2021, published 2024).
≈ marks a conversion by molar mass, not a printed value.

Experiments:
[1] = tested on: hERG / SGK1 (whole cell)
[2] = tested on: CYP3A4; assay: in vitro; conditions: human, microsomes
[3] = biological target: CYP2C9 (Homo sapiens (Human), UniProt P11712); assay: in vitro; conditions: microsomes
[4] = in vivo; conditions: male, CD1, mouse
[5] = biological target: CYP2B6 (Homo sapiens (Human), UniProt P20813); assay: in vitro; conditions: microsomes
[6] = biological target: CYP1A2 (Homo sapiens (Human), UniProt P05177); assay: in vitro; conditions: microsomes
[7] = male, SD, in vivo
[8] = in vivo; conditions: male, SD, rat; for bioavailability / Cmax: po, 30 mg/kg
[9] = biological target: CYP2D6 (Homo sapiens (Human), UniProt P10635); assay: in vitro; conditions: microsomes
[10] = physchem; conditions: 25 °C, kinetic from dmso stock

Sequence of CYP2B6 (P20813 whole entry): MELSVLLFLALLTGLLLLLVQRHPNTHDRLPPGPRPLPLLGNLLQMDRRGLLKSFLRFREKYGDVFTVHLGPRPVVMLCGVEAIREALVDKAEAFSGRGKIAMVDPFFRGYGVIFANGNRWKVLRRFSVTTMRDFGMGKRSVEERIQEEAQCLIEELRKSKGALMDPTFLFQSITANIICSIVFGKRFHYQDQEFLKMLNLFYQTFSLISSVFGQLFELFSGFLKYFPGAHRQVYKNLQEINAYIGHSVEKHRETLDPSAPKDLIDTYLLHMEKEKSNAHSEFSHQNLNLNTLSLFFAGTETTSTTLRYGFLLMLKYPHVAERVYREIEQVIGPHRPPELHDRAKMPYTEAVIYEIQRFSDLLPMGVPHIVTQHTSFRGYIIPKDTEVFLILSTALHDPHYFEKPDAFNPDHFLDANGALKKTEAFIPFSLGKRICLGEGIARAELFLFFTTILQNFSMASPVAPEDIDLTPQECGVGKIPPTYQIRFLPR
Sequence of CYP2D6 (P10635 whole entry): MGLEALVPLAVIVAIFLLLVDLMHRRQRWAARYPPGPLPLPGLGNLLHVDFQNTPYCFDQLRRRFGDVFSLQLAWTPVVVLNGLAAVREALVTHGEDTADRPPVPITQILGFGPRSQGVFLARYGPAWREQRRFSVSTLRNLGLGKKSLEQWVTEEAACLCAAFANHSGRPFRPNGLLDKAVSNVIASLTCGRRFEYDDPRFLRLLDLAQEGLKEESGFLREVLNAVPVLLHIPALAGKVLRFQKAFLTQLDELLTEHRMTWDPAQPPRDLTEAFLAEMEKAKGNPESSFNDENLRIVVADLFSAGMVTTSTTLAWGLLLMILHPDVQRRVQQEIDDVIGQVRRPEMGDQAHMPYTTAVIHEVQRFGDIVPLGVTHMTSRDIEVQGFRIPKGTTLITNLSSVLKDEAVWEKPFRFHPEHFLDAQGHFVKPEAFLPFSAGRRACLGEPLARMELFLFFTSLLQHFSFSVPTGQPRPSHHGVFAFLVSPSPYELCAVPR
Sequence of CYP1A2 (P05177 whole entry): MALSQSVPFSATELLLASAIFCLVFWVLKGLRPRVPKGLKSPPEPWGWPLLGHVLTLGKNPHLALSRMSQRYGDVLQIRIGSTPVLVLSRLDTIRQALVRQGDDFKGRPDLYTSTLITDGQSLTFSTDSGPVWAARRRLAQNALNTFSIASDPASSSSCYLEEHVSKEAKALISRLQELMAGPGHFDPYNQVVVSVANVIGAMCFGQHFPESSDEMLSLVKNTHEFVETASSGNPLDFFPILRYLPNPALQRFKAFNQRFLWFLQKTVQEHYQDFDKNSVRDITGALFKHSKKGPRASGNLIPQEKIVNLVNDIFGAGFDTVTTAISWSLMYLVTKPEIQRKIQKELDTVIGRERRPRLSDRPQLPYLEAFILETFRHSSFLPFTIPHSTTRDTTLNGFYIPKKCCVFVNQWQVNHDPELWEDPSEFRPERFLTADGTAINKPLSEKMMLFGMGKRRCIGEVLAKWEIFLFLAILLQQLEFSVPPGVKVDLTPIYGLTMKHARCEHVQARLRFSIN
Sequence of CYP2C9 (P11712 whole entry): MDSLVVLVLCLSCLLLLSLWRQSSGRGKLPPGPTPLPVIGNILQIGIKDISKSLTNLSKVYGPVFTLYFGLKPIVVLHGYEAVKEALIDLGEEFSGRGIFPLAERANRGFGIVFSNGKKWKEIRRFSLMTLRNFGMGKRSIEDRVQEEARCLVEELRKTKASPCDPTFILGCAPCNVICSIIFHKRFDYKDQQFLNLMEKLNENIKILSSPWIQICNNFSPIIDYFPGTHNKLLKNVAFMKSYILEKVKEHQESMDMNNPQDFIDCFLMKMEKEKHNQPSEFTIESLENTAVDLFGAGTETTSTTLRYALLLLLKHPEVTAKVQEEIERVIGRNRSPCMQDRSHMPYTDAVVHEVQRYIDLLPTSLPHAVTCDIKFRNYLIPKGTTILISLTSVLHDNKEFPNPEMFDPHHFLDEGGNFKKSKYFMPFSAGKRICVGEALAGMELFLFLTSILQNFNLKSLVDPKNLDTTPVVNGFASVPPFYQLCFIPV

inhibition at 5 min, 10 µM [2]	inhibition at 10 min, 10 µM [2]	inhibition at 20 min, 10 µM [3]	half-life [4]	Cmax ([4]; po, 30 mg/kg)	bioavailability ([4]; po, 30 mg/kg)	inhibition at 20 min, 10 µM [5]	inhibition at 20 min, 10 µM [6]	pK Data in Rat: F [7]	half-life [8]	bioavailability [8]	Cmax ([8]; Cmax (ng/ml))	Cmax ([8]; pK Data in Rat: Cmax)	inhibition at 20 min, 10 µM [9]	solubility at 2 h ([10]; pH 5, fessif)	solubility at 2 h ([10]; pH 7.4, aqueous buffer)	Structure (SMILES)	hERG/IC50 [1]
0.5%	3%	2.2%	2.3 h	621 ng/mL	22%	1.2%	-0.9%	Cmax = 2470 ng/mL F = 17.9%	3.15 h	17.9%	2470 ng/mL	2470 ng/mL	0%	297 µM (≈ 150 µg/mL)	3.38 µM (≈ 1.71 µg/mL)	Cc1n[nH]c2nc(-c3ccc(NS(=O)(=O)c4cc(F)ccc4F)c(F)c3)nc(NCCN(C)C)c12 [Compound 84, N-[4-(4-[[2-(dimethylamino)ethyl]amino]-3-methyl-1H-pyrazolo[3,4-d]pyrimidin-6-yl)-2-fluorophenyl]-2,5-difluorobenzenesulfonamide]	177
19%	-2.9%	9.4%	–	–	–	7.7%	-0.7%	Cmax = 2747 ng/mL F = 92%	3.6 h	92%	2750 ng/mL	2750 ng/mL	1.8%	315 µM (≈ 164 µg/mL)	4.5 µM (≈ 2.35 µg/mL)	Cc1n[nH]c2nc(-c3ccc(NS(=O)(=O)c4cc(F)ccc4F)c(Cl)c3)nc(NCCN(C)C)c12 [Compound 85, N-(2-chloro-4-(4-((2-(dimethylamino)ethyl)amino)-3-methyl-1H-pyrazolo[3,4-d]pyrimidin-6-yl)phenyl)-2,5-difluorobenzenesulfonamide]	82
